Values quoted from earlier work as cited in patent publication US20040235808A1, “Androstanes as androgen receptor modulators” (priority 2001, published 2004).

How the values were obtained:
[1] = after 7 years of treatment
[2] = median of 22 months of treatment

Compound	increase in spinal BMD [1] [%]	reduction in nonvertebral fractures [2] [%]	reduction in spine fractures [2] [%]
NCCCC(O)(P(=O)([O-])O)P(=O)(O)O.O.O.O.[Na+] [alendronate, (4-amino-1-hydroxybutylidene)-bis-phosphonate monosodium trihydrate]	11	–	–
hPTH(1-34): human parathyroid hormone 1-34 fragment (SVSEIQLMHNLGKHLNSMERVEWLRKKLQDVHNF; Parathyroid hormone; UniProt P01270 32-65, looked up, fragment)	–	54	≥ 65
